From EP4732839A1, “USE OF COMPOUND IN TREATMENT OF LIVER DISEASES” (priority 2023, dated 2025)

Key:
hepatitis B virus (HBV) = assay: Anti-hepatitis B virus activity in HBV-infected primary human hepatocytes; format: cell-based, HBV type B; settings: HBV-infected PHHs, agonist-treated PBMC supernatant (donor 1) or reference compound
Description: The culture supernatant from one donor (donor 1) was selected to stimulate HBV-infected primary hepatocytes (PHHs), and interferon α and nucleoside analog entecavir (ETV) were selected as positive controls. The experimental procedures were as follows (FIG. 14a), and the detailed procedures were as follows: On day -1, cryopreserved PHHs were thawed and adjusted to a density of 6 × 10^5 cells/mL, and the PHHs were seeded into a 48-well plate at 0.22 mL/well.
On day 0, the PHHs were infected with HBV type B at 600 GE/cells.
On day 1, the culture medium was replaced with a fresh one, and reference compounds ETV and Peg-IFN-α2a (Pegasys-Roche) were added to the cells to treat the cells. The reference compounds ETV and Peg-IFN-α2a for the PHHs were each prepared at one concentration, with three replicate wells.
The PBMC supernatants were each prepared at 4 test concentrations, diluted at a ratio of 1:4, and then added to the cells. Three replicate wells were made for each test condition. The culture medium was replaced with a fresh culture medium containing the PBMC supernatants and the reference compounds on days 5, 7, 9, and 11. On day 13, the cell supernatants were collected and the cell viability was detected using CCK-8.
The content of HBV DNA in the supernatants was determined by qPCR according to the kit instructions. HBsAg and HBeAg levels in the supernatants were determined by ELISA.

[1] = test system: Peripheral blood mononuclear cells (hPBMCs); assay: Cytokine secretion after stimulation of PBMCs; settings: hPBMCs from 3 donors, 24 h of stimulation
[2] = Liver tissue distribution after single intragastric administration; settings: for Mean drug concentration (liver) / Mean drug concentration (plasma) / AUC(0-t) at 24 h: 10 mg/kg single intragastric, ICR mice; for AUC(0-t) at 24 h: in vivo, area under curve at 24 h post-dose
Description: The specific regimen was as follows: Before administration, the state of the formulation for administration was inspected, and the homogeneity of the formulation was ensured by vortexing, stirring, or shaking. The theoretical dose for each mouse was calculated according to the following formula. The actual dose for each ICR mouse and the collection time for plasma and tissue samples were required to be recorded in detail in corresponding tables. Theoretical administration volume (mL) = ((Dose(mg⋅kg^−1))/(Concentration of test solution (mg⋅((mL))^−1))) × Animal body weight (kg) [formula]
Plasma sample collection: At each designated time point, about 100 µL of blood was collected from the orbit, and the collected whole blood was placed in an EDTA-K2 anticoagulation tube, inverted several times to mix thoroughly, stored on wet ice, and centrifuged (at 1500 g to 1600 g) for 10 min within 30 min to separate the plasma. The resulting plasma sample was stored at -40 °C to -20 °C for biological sample analysis.
The specific procedures for liver tissue collection were as follows: Liver tissues were collected immediately after whole blood collection. The liver tissues were collected, washed with ice-cold normal saline, dehydrated, weighed, and homogenized in 20% methanol-water at a ratio of 1:5 (w/v). The collection time of tissues and the weight of homogenized tissues were required to be recorded in detail in corresponding tables.
The plasma and various tissue homogenates were stored in a refrigerator at -40 °C to -20 °C for sample analysis. After the experiment was completed, the mice were euthanized by carbon dioxide asphyxiation or cervical dislocation. After the analysis was completed, the samples were returned to the biological sample room, and transferred to an environment at -40 °C to -20 °C for storage according to SOP-SM-001.
The corresponding pharmacokinetic parameters of plasma and liver tissues were calculated using a non-compartmental model in Phoenix WinNonlin 8.0 or later versions, and the area under curve AUC0-t (AUC0-t, the area under the concentration-time curve at 24 h post-dose) was calculated. The liver/plasma drug distribution ratio (RL/P) was then calculated.

[3] = test system: advanced hepatocellular carcinoma (aHCC); settings: first-line aHCC; nivolumab 240 mg intravenous drip once every 2 weeks; sorafenib 400 mg oral twice daily; cited from earlier work
[4] = test system: advanced unresectable HCC; settings: cited from earlier work
in vivo = assay: in vivo
Description: C57BL/6 mice, 8 weeks old, female/male, 27, supplier: SPF (Beijing) Biotechnology Co., Ltd.
The body weight of the animals was measured and recorded daily.
All groups were subjected to clinical observations before administration and 1 to 2 h after administration, and additional observations were performed if necessary. Deaths and mortality were checked twice daily. The observations should include, but are not limited to, the following: fur condition, activity, mental status, vomiting, diarrhea, and abnormal secretions around the eyes. All animals should be observed on the day of necropsy, and any abnormal findings should be recorded.
The rectal temperature of all animals was measured and recorded at 0 h before administration and at 2 h, 4 h, 8 h and 24 h after administration.
The experiment was terminated on day 7 after administration. A gross necropsy was performed to examine abdominal and thoracic organs for lesions, and the spleen and liver were collected for weighing.

Hep3B-luc = Hep3B-luc liver orthotopic xenograft mouse model; settings: Hep3B-luc liver orthotopic tumor model, 3 mg/kg
[5] = format: in vivo, C57BL/6J wild-type female mice
Description: (§1) C57BL/6J wild-type female mice (6 weeks old) were randomly grouped. After administration at different doses, whole blood and liver tissues of the mice were separately collected at 1 h, 2 h, and 4 h for detection of a plurality of parameters to evaluate the effect of the drugs on the liver.
(§2) Liver tissues and blood were collected at 1 h, 2 h, and 4 h after single dosing.
(§3) The supernatant was collected and stored (-20 °C); • (3) IFN-α, IP-10, IL-6, and TNF-α were detected using an ELISA kit. • (C) Remaining liver tissue-HE staining and pathological evaluation. • (D) 1/2 blood (whole blood)-liver function parameter detection: AST (aspartate aminotransferase), ALT (alanine aminotransferase/glutamate pyruvate transaminase), ALP (alkaline phosphatase), ALB (albumin), and GGT (γ-glutamyl transferase). • (E) 1/2 blood-serum preparation-reserve for ELISA.

[6] = test system: IFN-α, IP-10, IL-6, and TNF-α; assay: Liver safety: cytokine ELISA in liver tissue; format: in vivo, C57BL/6J wild-type female mice; settings: 1 h, 2 h, 4 h
Description: as §1, §2, §3

hERG potassium channel = hERG potassium channel (Homo sapiens, UniProt Q12809); assay: hERG whole-cell patch-clamp; format: cell-based
Text: The rapidly activated potassium channel encoded by human ether-a-go-go-related gene (hERG) is an important ion channel involved in the formation of cardiac action potential phase 3 repolarization. Drug-induced blockade of hERG channels can lead to delayed cardiac repolarization, manifested as QT interval prolongation on the electrocardiogram, known as long QT syndrome. Drug-induced delayed ventricular repolarization may, under certain circumstances, trigger fatal arrhythmias-torsade de pointes-type ventricular tachycardia. In this study, the whole-cell patch-clamp technique (the standard method for hERG safety assessment) was employed to evaluate the inhibitory effects of the small-molecule compounds on the hERG potassium channel and to assess the risk of ventricular repolarization toxicity.

in vitro = settings: human, microsomes, pH 7.4
Description: The metabolic stability of the compounds in in vitro liver microsomes was evaluated. The procedures and steps were as follows: At 37 °C, 1 µM of the compounds was incubated in 1 mg/mL liver microsomes. The reaction system was a 0.1 M potassium phosphate buffer (pH 7.4) containing 3 mmol/L MgCl2 and 1 mmol/L NADPH. At the beginning of the reaction, the small molecules and the liver microsomes were pre-incubated at 37 °C for 10 min, and subsequently a cofactor NADPH was added to initiate the metabolic reaction. The reaction was quenched at 0 min, 5 min, 10 min, 20 min, 30 min, and 60 min using three volumes of ice-cold methanol containing an internal standard (200 nM labetalol). After incubation at room temperature for 10 min, the samples were centrifuged at 4000 rpm at 4 °C for 20 min, and the supernatants were collected, diluted with chromatography-grade purified water in a 1:1 ratio, and then subjected to quantitative analysis. […] After a 6-minute chromatographic separation on a C18 column (50 × 2.1 mm; 2.6 µm) under a gradient mobile phase of 0.1% formic acid in water, the peaks corresponding to specified ionic signals were detected. […] The detailed operation process was as follows: • 1) The compound working solution was added to all 96-well reaction plates (T0, T5, T10, T20, T30, and T60) at 10 µL/well, except the blank wells. • 2) The microsomal solution was added to all the reaction wells (T0, T5, T10, T20, T30, T60, and blank wells) at 80 µL/well. • 3) The plates were pre-incubated at 37 °C for 10 min. • 4) After pre-incubation, NADPH was added to each reaction plate at 10 µL/well to initiate the reaction. • 5) At the set end time point, a 4 °C methanol solution (containing an internal standard: 200 nM labetalol) was added to each reaction plate at 300 µL/well to quench the reaction. • 6) Each plate was sealed and shaken for 10 min. • 7) The mixture was shaken well and centrifuged at 4000 rpm at 4 °C for 20 min. • 8) 300 µL of the supernatant was collected, and HPLC-grade water was added at 300 µL/well. The mixture was well mixed and then subjected to LC-MS analysis.
The metabolic half-life (T1/2) and the metabolic clearance rate (CLint(mic)) (µL/min/mg) were calculated using a first-order kinetic equation.

[7] = test system: ISG15, ISG56, Mx1, and Oaslb; assay: Liver safety: qPCR of interferon-related genes in liver tissue; format: in vivo, C57BL/6J wild-type female mice; settings: dose of 3 mpk (pharmacodynamic dose)
Description: as §1, §2, §3

H22-luc = H22-luc orthotopic model, 3 mpk, IG
Description: The cells were placed in an incubator at 37 °C with 5% CO2 and passaged every 1 to 2 days depending on the cell density.
The cell concentration (H22-luc, 2.0E8/mL) was adjusted, and the cells were mixed well with Matrigel at a ratio of 1:1. The mixture was placed on ice for subsequent injection experiments, and was mixed thoroughly by shaking with Vortex before use.
• (1) The mice were weighed before surgery and anesthetized by intraperitoneal injection of avertin at 0.15 mL/10 g body weight. […] The needle was inserted into the liver at a 30-degree angle relative to the liver surface. After the needle was inserted, the needle was made parallel to the tabletop and advanced in parallel for about 3 mm. 10 µL of H22-luc cell suspension was slowly injected, and a rapid whitening (white plaque) or turbid translucent vacuolation over most of the liver lobe in the injection area was observed. • (5) After injection, a cotton swab was used to apply slight pressure at the needle insertion site while the needle was slowly withdrawn. The cotton swab was removed until no bleeding was observed. • (6) The liver lobe was gently pushed back into the abdominal cavity, and the muscle layer and skin were sutured.
The experimental data were analyzed using Graphpad Prism 8. The experimental data were expressed as mean ± SD.

[8] = ICR, mouse, liver, oral, 10 mg/kg
[9] = ICR, mouse, liver/plasma, oral, 10 mg/kg
[10] = ICR, mouse, plasma, oral, 10 mg/kg
[11] = C57BL/6 mice, single intragastric administration

hERG potassium channel, sequence (Q12809 whole entry): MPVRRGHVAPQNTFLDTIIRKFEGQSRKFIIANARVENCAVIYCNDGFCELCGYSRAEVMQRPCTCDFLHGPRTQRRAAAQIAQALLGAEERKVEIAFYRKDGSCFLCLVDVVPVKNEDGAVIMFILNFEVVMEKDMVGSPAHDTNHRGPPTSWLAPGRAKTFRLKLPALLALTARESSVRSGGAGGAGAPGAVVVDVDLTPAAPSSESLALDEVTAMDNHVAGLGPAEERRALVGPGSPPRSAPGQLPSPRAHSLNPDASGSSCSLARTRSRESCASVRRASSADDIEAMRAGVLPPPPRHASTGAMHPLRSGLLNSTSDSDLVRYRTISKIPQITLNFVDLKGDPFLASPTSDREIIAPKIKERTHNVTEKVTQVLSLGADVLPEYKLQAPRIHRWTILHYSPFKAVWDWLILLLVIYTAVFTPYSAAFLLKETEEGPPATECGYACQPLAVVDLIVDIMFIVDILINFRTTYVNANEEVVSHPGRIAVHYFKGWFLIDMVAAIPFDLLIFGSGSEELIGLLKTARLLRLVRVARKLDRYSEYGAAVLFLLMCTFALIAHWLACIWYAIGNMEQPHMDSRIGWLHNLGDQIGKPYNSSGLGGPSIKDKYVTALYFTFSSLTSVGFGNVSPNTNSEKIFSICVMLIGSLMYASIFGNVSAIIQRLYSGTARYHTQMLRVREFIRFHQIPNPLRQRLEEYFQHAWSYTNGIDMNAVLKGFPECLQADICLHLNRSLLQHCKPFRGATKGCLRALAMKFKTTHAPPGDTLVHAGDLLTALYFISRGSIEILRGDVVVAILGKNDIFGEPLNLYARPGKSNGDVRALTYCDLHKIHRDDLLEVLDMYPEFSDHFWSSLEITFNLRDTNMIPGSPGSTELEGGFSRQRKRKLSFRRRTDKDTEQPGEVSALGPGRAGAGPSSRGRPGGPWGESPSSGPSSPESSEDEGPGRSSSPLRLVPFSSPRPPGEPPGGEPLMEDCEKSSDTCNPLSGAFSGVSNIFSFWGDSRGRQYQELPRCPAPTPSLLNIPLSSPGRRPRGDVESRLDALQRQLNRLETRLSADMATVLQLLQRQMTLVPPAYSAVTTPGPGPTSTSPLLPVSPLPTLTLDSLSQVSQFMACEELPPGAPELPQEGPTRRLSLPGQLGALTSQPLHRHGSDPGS

With C=C1[C@H](CO)[C@@H](O)C[C@@H]1n1cnc2c(=O)[nH]c(N)nc21 [ETV, entecavir, reference compound] the “levels of surface antigens HBeAg and HBsAg” value (hepatitis B virus (HBV); supernatant ELISA day 13) was “did not reduce” and the “level of HBV DNA” value (hepatitis B virus (HBV); supernatant qPCR day 13) was “significantly inhibited”.
In the case of CCCC[C@](C)(CO)Nc1nc(N)nc2cc(F)cnc12 [GS-9688, reference compound], the IFN-α stimulating activity [1] is reported as “essentially failed to activate IFN-α”, the “Mean drug concentration (liver)” value ([2]; 24h) is reported as “BLOQ” and the “Mean drug concentration (plasma)” value ([2]; 24h) is reported as “BLOQ”. For the same compound, the concentration at 0.25 h [2, 8] was 907 ng/g, the concentration at 1 h [2, 8] was 224 ng/g and the concentration at 4 h [2, 8] was 207 ng/g. It also gave an AUC(0-t) ([2]; ICR, mouse, liver, po, 10 mg/kg) of 1180 ng·h/mL, a Kp [2, 9] of 3.5 and a Kp at 0.25 h [2, 9] of 2.49. It also gave a Kp at 1 h [2, 9] of 3.16, a Kp at 4 h [2, 9] of 15 and a Kp ([2]; ICR, mouse, liver/plasma, po, 10 mg/kg) of 3.5. The concentration at 0.25 h [2, 10] was 364 ng/mL, the concentration at 1 h [2, 10] was 70.9 ng/mL and the concentration at 4 h [2, 10] was 13.8 ng/mL. It also gave an AUC(0-t) ([2]; ICR, mouse, plasma, po, 10 mg/kg) of 336 ng·h/mL.
In the case of CNC(=O)c1cc(Oc2ccc(NC(=O)Nc3ccc(Cl)c(C(F)(F)F)c3)cc2)ccn1 [sorafenib], the ORR [3] is listed as 7%, the mOS [3] is listed as 14.7 months and the median survival ([4]; patients with advanced unresectable HCC (N = 602), placebo 7.9 months) is listed as 10.7 months. The progression-free survival ([4]; placebo 84 days) was 167 days.
For COCCNc1nc(N)nc2ccc(Cc3ccc(CN(C)C)cc3)nc12 [Compound I], the Gross necropsy (in vivo; 10 mg/kg, group 1, male animal No. 46) was “enlarged spleen”, the Cage-side observation (in vivo; 10 mg/kg, group 1, male animal No. 46, day 2) was “mild hunched posture” and the Gross necropsy (in vivo; 40 mg/kg, group 4, female animal No. 2) was “enlarged spleen”. For the same compound, the rectal temperature (in vivo; 2 h after treatment, significant difference vs vehicle group, returned to normal 4 h, 8 h and 24 h) was “decreased”, the “Adverse reactions at maximum tolerated dose/probability” value (in vivo; [11]) was “No” and the “Weight loss at maximum tolerated dose: whether recovered” value (in vivo; [11]) was “Yes”. The “Weight loss rate at maximum tolerated dose” value (in vivo; [11]) was 12.5%, the “With or without mouse death” value (in vivo; [11]) was “No” and the spleen weight (in vivo; female animals, 30 mg/kg, compared with vehicle group) was “significantly increased”. For the same compound, the body weight (in vivo; male and female animals, 10-40 mg/kg single administration, began to recover from day 3 to day 7) was “decreased after the single administration”, the MTD at 168 h (in vivo; mouse, in vivo, po) was 40 mg/kg and the “maximum body weight loss” value (Hep3B-luc) was 8.0%. For the same compound, the ALB level ([5]; 10 mpk group at 2 h) was “significantly lower than that of the control group”, the AST levels ([5]; all administration groups, no statistically significant differences) was “exceeded the normal reference range” and the ALP levels ([5]; all dose groups) was “within the normal reference value range”. The GGT levels ([5]; all dose groups) was “within the normal reference value range”, the “ALT elevation by clinical adverse reaction grading” value ([5]; single administration, Grade 1 AE = ALT exceeding three times the normal value) was “did not result in ALT elevation to grade 1 AE” and the ALT ([5]; whole blood, 3/10/20 mpk i.g. single dose, 1 h, 2 h, 4 h) was “increased in all groups”. The “expression level of IP-10” value ([6]; 3 mpk i.g. single dose) was “increased first, then decreased, and then increased from 1 h to 4 h”, the “expression levels of IL-6, TNF-α, and IFN-α” value ([6]; 3 mpk i.g. single dose) was “decreased from 1 h to 4 h” and the “expression level of IP-10” value ([6]; 10 mpk i.g. single dose) was “peaked at 2 h and decreased at 4 h”. The “expression levels of IL-6, TNF-α, and IFN-α” value ([6]; 10 mpk i.g. single dose) was “increased from 1 h to 4 h”, the “expression levels of IL-6, TNF-α, IFN-α, and IP-10” value ([6]; 20 mpk i.g. single dose) was “peaked at 2 h, and decreased at 4 h” and the IC50 (hERG potassium channel) was 17.2 µM. For the same compound, the half-life at 1 µM (in vitro) was 1.7 h, the microsomal CLint at 1 µM (in vitro) was 13.7 µL/min/mg and the “mRNA expression level of interferon-related genes” value [7] was “significantly induced an increase”. For the same compound, the “Mean drug concentration (liver)” value ([2]; 0.25h) was 3416 ng/g, the “Mean drug concentration (plasma)” value ([2]; 0.25h) was 45.4 ng/mL and the “Mean drug concentration (liver)” value ([2]; 1 h) was 2340 ng/g. The “Mean drug concentration (plasma)” value ([2]; 1 h) was 25.9 ng/mL, the “Mean drug concentration (liver)” value ([2]; 4h) was 263 ng/g and the “Mean drug concentration (plasma)” value ([2]; 4h) was 10.7 ng/mL. The “Mean drug concentration (liver)” value ([2]; 24h) was 35.6 ng/g, the “Mean drug concentration (plasma)” value ([2]; 24h) was 1.49 ng/mL and the AUC(0-t) at 24 h ([2]; mouse, po, 10 mg/kg, AUC0-t (liver)) was 9480 ng·h/mL. For the same compound, the AUC(0-t) at 24 h ([2]; mouse, po, 10 mg/kg, AUC0-t (plasma)) was 206 ng·h/mL, the mouse death (H22-luc; QW × 3) was “One mouse in the compound I group died from ascites on day 20” and the TGI (H22-luc; QW × 3, BLI 21 days post-dose, P < 0.0001) was 87.0%.
